No end group written: not given here.
Key:
human T cells [1] = test: Induction of T cell adhesion to ECM, FN, LN and CO-IV; assay type: cell-based; details: T cells activated only with PMA; not shown
HT-29 cells = test: Spontaneous IL-8 secretion from intestinal epithelial cells (ELISA); assay type: cell-based, human; set-up: IL-8 secretion Average O.D.: scale not given here; details: peptide 1 nM, 24 h at 37° C.; for IL-8 secretion Average O.D.: ELISA O.D. at 405 nm, medium alone 488 ± 8.5, background 71 ± 1.4; for IL-8 secretion % inhibition: spontaneous secretion
Description: Human colonic epithelial cell lines HT-29 (ATCC HTB38) and Caco-2 (ATCC […]) were obtained from the American Type Culture Collection (ATTC, Rockville, Md.). Cells were maintained in culture medium (DMEM supplemented with 10% cosmic calf serum (CSS), 2 mM glutamine, 100 U/ml penicillin, and 0.1 mg/ml streptomycin), at 37° C. and atmosphere of 5%, CO2. Cell viability was assessed using the standard MTT method.
Spontaneous or cytokine-induced secretion of IL-8 or IL-1β from intestinal epithelial cell. Test cells (HT-29 or Caco-2) were grown as confluent monolayers in 24-well tissue culture plates. […] When TNF-α was used, the peptides were added to the cells 1 hour prior to the addition of TNF-α. Following culture, the supernatants were harvested and analyzed for IL-8 or IL-1β secretion by ELISA using commercially available kits for IL-8 (Pharmingen) and IL-1β (Genzyme), according to the manufacturers' protocols.
The results in Table 1 show the O.D. readings of the ELISA assay (at 405 nm) as well as the percentage of inhibition of IL-8 secretion.

human T cells [2] = test: IL-2-induced T cell adhesion to LN, CO-IV and FN after peptide pre-treatment; assay type: cell-based; details: pre-exposed to peptide 10 pg/ml, then IL-2 10 U/ml
Description: The T cells were then seeded onto microtiter wells that were pre-coated (1 μg/well) with the various ECM glycoproteins. T cell adhesion was measured 30 min later.
(§1) T cell adhesion assays. Human T cells were purified from the peripheral blood of healthy donors, and T cell adhesion to immobilized protein substrates was examined as follows: Human leukocytes were isolated on a Ficoll gradient, washed, and incubated (2 h, 37° C., 7.5% CO2, humidified atmosphere) on petri dishes. The non-adherent cells were then collected and incubated (1 h, 37° C., 7.5% CO2, humidified atmosphere) on nylon wool columns (Novamed Ltd., Jerusalem, Israel). Unbound cells were eluted from the columns by extensive washings. The resulting cell population was always >92% T cells. […] After 4-6 h at 37° C., the wells were washed and ^51[Cr]-labeled T cells were added to the wells, 10^5 cells/100 μl of adhesion medium (RPMI-1640 supplemented with 0.1% BSA, 1% sodium pyruvate, 1% HEPES buffer). The microtiter plates containing the cells were incubated (30 min, 37° C.) in a humidified, 7.5% CO2 atmosphere, and then washed. The adherent cells were lysed, and the resulting supernatants were removed and analyzed in a γ-counter. For each experimental group, the results were expressed as the mean percentage ±SD of bound T cells from quadruplicate wells.
Ile-Val-Leu, Arg-Met-Leu-Thr (SEQ ID NO:2) and […](SEQ ID NO:1) inhibit T cell adhesion to LN, CO-IV and FN. The next experiment was designed and performed to verify that the three IL-2-derived peptides indeed affect T cell interactions with ECM glycoproteins other than FN. […] The treated cells were then added to microtiter wells coated with CO-IV, LN, and FN.

human T cells [3] = test: T cell chemotaxis through FN-coated polycarbonate membranes; assay type: cell-based; details: peptide 1 pg/ml, FN-coated membrane
Description: T cell migration towards the chemotactic sources was assessed after 2 hr. One experiment representative of four.
Chemotaxis assays. T cell chemotaxis was performed and analyzed as previously described (Ben-Baruch et al., 1997). Briefly, the migration of human T cells (0.5×10^6 cells in adhesion medium/well) was examined in a 48-well chemotaxis micro-chamber (Neuro-Probe Inc., Cabin John, M D). The two compartments of the micro-chambers were separated by a FN-coated polycarbonate filter (5 μm pore size; Osmonics Protein Products, Livemore, Calif.). […] After incubation (120 min, 37° C., in a humidified, 7.5% CO2 atmosphere); the filters were removed, fixed, and stained with a Diff-Quik staining kit Dade, Düdingen, Switzerland). The number of migrating T cells in five high-power fields (under 500× magnification; WILD Microscope, Heerbrugg, Switzerland) was evaluated. For each group, the results are expressed as the mean number of cells in one high-power field.
Immune cell migration is the outcome of a subtle biological equilibrium existing between adhesion and detachment events. Lymphocyte adhesion to the subendothelial ECM and subsequent migration are two active processes that can overlap, but are not mutually dependent events. Adhesion and migration may depend on the ability of the T cells to continuously integrate different pro- and anti-adhesive signals via their versatile receptors for ECM, chemokines, cytokines, and possibly, also antigenic moieties.

human T cells [4] = test: PHA- or IL-2-mediated T cell proliferation; assay type: cell-based; details: peptide 1 to 100 pg/ml
Description: The in vitro bioassays (a) to (e) are well-known in the art. Thus, for example, assays (a), (b) and (e) may be carried out as described in the section Materials and Methods hereinafter. […] The IL-2-derived peptides or their derivatives are added to the culture wells (different amounts, 10 microliters) for the entire period of the assay. [^3H]-Thymidine is added to the microtiter 96 U-form well plates 18 h before harvesting the cultures on day 3 onto glass fiber filters and counted by liquid scintillation counter. Mean CPM and SD from quadriplicate culture are then presented.

human T cells [5] = test: IL-2-induced T cell adhesion to fibronectin (FN); assay type: cell-based; details: for inhibition of adhesion of IL-2-activated T cells to FN: 30 min at 37° C., dose range
Description: as §1
The effect of synthetic peptides, with putative amino acid compositions corresponding to fractions 2 and 8, on IL-2-induced T cell adhesion to FN. […] These three peptides were synthesized, and their effects on IL-2-induced T cell adhesion to FN were studied. […] The inhibitory dose-response curves of Ile-Val-Leu and […](SEQ ID NO:1) are similar to those of the HPLC fractions 2 and 8, respectively, from which they were derived. […]

human T cells [6] = test: Secretion of TNF-α and IFN-γ from proliferating T cells; assay type: cell-based; details: peptide 1 to 100 pg/ml; not shown

Row | Compound | IL-8 secretion Average O.D. (HT-29 cells) | IL-8 secretion % inhibition (HT-29 cells) [%] | further results
1 | CCCCCCCCCCCCCC(=O)O[C@@H]1[C@@H](C)[C@@]2(O)[C@@H](C=C(CO)C[C@]3(O)C(=O)C(C)=C[C@@H]23)[C@@H]2C(C)(C)[C@]12OC(C)=O [PMA] | – | – | T cells adhered to immobilized ECM and ECM glycoproteins (human T cells [1]): 45±4.4%
2 | AFLNRWIT [pep22] | 158 ± 4.2 | 79 | –
3 | ATIVEFLNRWIT [pep17] | 150 ± 6.4 | 81 | –
4 | Ala-Met-Leu-Thr (AMLT) [pep36] | 201 ± 17.7 | 69 | –
5 | Ala-Val-Leu [pep7] | 170 ± 8.5 | 76 | –
6 | Arg-Ala-Leu-Thr (RALT) [pep37] | 222 ± 24.0 | 64 | –
7 | Arg-Met-Ala-Thr (RMAT) [pep38] | 157 ± 1.4 | 79 | –
8 | Arg-Met-Leu-Ala (RMLA) [pep39] | 160 ± 21.9 | 79 | –
9 | Arg-Met-Leu-Thr (RMLT; not fully specified (C-terminus); printed as Arg-Met-Leu-Thr) [pep3] | 44 ± 0.7 | 107 | inhibition of T cell adhesion to CO-IV, LN and FN (human T cells [2]): inhibit T cell adhesion to the three major cell-adhesive glycoproteins of the ECM; inhibition of T cell migration toward IL-2 (human T cells [3]; IL-2 10 U/ml in lower compartment, p<0.01): ~90%; inhibition of T cell chemotaxis toward MIP-1β (human T cells [3]; MIP-1β in lower compartment): 60%; interference with PHA- or IL-2-mediated proliferative responses (human T cells [4]): none of them, at 1 to 100 pg/ml, interfered with either PHA- or IL-2-mediated proliferative responses; concentration giving maximum inhibition of IL-2-induced T cell adhesion to FN (human T cells [5]; IL-2 10 U/ml): about 0.1 pg/ml; concentration giving maximum inhibition of IL-2-induced T cell adhesion to FN (molar) (human T cells [5]; IL-2 10 U/ml): ~0.2 pM; inhibition of adhesion of IL-2-activated T cells to FN (human T cells [5]; IL-2 10 U/ml): inhibited, in a dose-dependent manner; anti-adhesive effect after removal of peptide prior to IL-2 activation (human T cells [5]; T cells pre-treated 1 pg/ml, washed, then IL-2 and FN-coated wells): most of the anti-adhesive effects of the three peptides persevered; relative potency as inhibitor of IL-2-induced T cell adhesion to FN (human T cells [5]; among the three IL-2 peptides): most potent inhibitor; inhibition of secretion of TNF-α and IFN-γ from proliferating T cells (human T cells [6]): nor did these peptides inhibit the secretion of TNF-α and IFN-γ
10 | Arg-Met-Leu-Thr-NH2 (RMLT-NH2) [pep42] | 226 ± 28.3 | 63 | –
11 | Arg-Trp-Ile-Thr [pep20] | 191 ± 4.9 | 71 | –
12 | Arg-Val-Leu-Thr (RVLT) [pep41] | 132 ± 17.0 | 85 | –
13 | Asn-Val-Ile-Val-Leu (NVIVL) [pep6] | 100 ± 14.8 | 93 | –
14 | EALNRWIT [pep24] | 187 ± 16.3 | 72 | –
15 | EFANRWIT [pep26] | 156 ± 27.6 | 80 | –
16 | EFLARWIT [pep27] | 309 ± 18.4 | 43 | –
17 | EFLNAWIT [pep28] | 120 ± 8.5 | 88 | –
18 | EFLNEWIT [pep29] | 139 ± 19.8 | 84 | –
19 | EFLNRAIT [pep30] | 123 ± 9.2 | 88 | –
20 | EFLNRWAT [pep31] | 112 ± 18.4 | 90 | –

Row | Compound | IL-8 secretion Average O.D. (HT-29 cells) | IL-8 secretion % inhibition (HT-29 cells) [%] | further results
21 | EFLNRWIA [pep32] | 80 ± 24.0 | 98 | –
22 | EFLNRWITFC [pep16] | 126 ± 7.1 | 87 | –
23 | EFLNRWITFCQS [pep18] | 162 ± 12.0 | 78 | –
24 | EVLNRWIT [pep25] | 172 ± 2.8 | 76 | –
25 | Glu-Phe-Leu-Asn [pep21] | 195 ± 14.1 | 70 | –
26 | Glu-Phe-Leu-Asn-Arg-Trp-Ile-Thr-NH2 (EFLNRWIT-NH2) [pep33] | 73 ± 5.7 | 100 | –
27 | Glu-Val-Leu [pep10] | 125 ± 19.1 | 87 | –
28 | IVEFLNRWIT [pep15] | 33 ± 0.7 | 109 | –
29 | IVLELKG [pep5] | 35 ± 0.7 | 109 | –
30 | Ile-Ala-Leu [pep8] | 35 ± 4.9 | 109 | –
31 | Ile-Val-Ala [pep9] | 100 ± 9.9 | 93 | –
32 | KFLNRWIT [pep23] | 36 ± 14.1 | 108 | –
33 | LNRWIT [pep19] | 152 ± 30.4 | 81 | –
34 | Leu-Val-Ile [reference compound] | – | – | inhibition of adhesion of IL-2-activated T cells to FN (human T cells [5]; IL-2 10 U/ml): none of these peptides, tested in a broad range of dosages, interfere with T cell adhesion
35 | Lys-Met-Leu-Thr (KMLT) [pep40] | 179 ± 17.7 | 74 | –
36 | NINVIVL [pep4] | 34 ± 3.5 | 109 | –
37 | PKLTRMLT [pep43] | 57 ± 12.7 | 103 | –
38 | RMLTFKFY [pep44] | 307 ± 29.7 | 43 | –
39 | TIWRNLFE [reference compound] | – | – | inhibition of adhesion of IL-2-activated T cells to FN (human T cells [5]; IL-2 10 U/ml): none of these peptides, tested in a broad range of dosages, interfere with T cell adhesion
40 | Thr-Leu-Met-Arg (TLMR) [reference compound] | – | – | inhibition of adhesion of IL-2-activated T cells to FN (human T cells [5]; IL-2 10 U/ml): none of these peptides, tested in a broad range of dosages, interfere with T cell adhesion
